From patent US8686016B2, “Schweinfurthins and uses thereof” (The United States of America, as represented by the …, priority 2009, dated 2014)
“Also recorded” adds a separate entry of the source.

Key:
[1] = tested on: KR158 cells stably transfected with GFP-actin; assay: Cell morphology / actin confocal microscopy, KR158 GFP-actin; format: cell-based, mouse; details: 16-18 hrs treatment
Procedure: Doxorubicin studies: KR158 stably transfected with GFP-actin were treated with 25 and 50 μM doxorubicin for 18 hrs continuously.
Cell Morphology Assays and Confocal Microscopy: To assay cytoskeleton morphology, KR158 cells, mouse primary astrocytes, KR158 clones expressing the NF1-GRD constructs, K14553 cells, and A549 were seeded to cover slips and allowed to reattach overnight. Cells were treated for 18 hours with either the indicated concentrations of SA, or the vehicle control DMSO. The cover slips were fixed in 3.7% paraformaldehyde, permeablized in 0.1% Triton-X100, and stained with Alexa Fluor 488-phalloidin (Invitrogen, Carlsbad, Calif., USA) to detect actin and cells were mounted in Prolong Antifade containing DAPI (Invitrogen) to stain nuclei. The cells were imaged on a LSM510 confocal microscope (Carl Zeiss Inc., Jena, Germany). […] KR158 GFP-actin transfected cells were seeded to 8-well chamber slides, allowed to reattach, and then treated with indicated concentrations of SA. Actin structures were monitored continuously over a 16 hr period using confocal microscopy equipped with a growth chamber (37° C., humidified atmosphere and 5% CO2). To compare SA to Rho/Rock inhibitors, KR158 GFP-actin cells were treated with SA or with the Rho pathway inhibitors Rock inhibitor Y-27632 (Sigma, St. Louis, Mo., USA), and the Rho inhibitor C3 transferase (Cytoskeleton, Inc., Denver, Colo., USA, cat# CT04) for 16 hrs, and then examined by confocal microscopy.

[2] = tested on: A549 human lung carcinoma cells; assay: Clonogenic assay, A549; format: cell-based; details: 18 hrs treatment, colonies after one week
Procedure: Clonogenic Assays: Monolayers of cells were treated for 18 hrs with SA, and then harvested, counted, and seeded to 35 mm dishes at a density of 1000 cells per dish. After one week, macroscopic colonies were stained with crystal violet (Sigma, St. Louis, Mo., USA) and counted.

Rho = Rho GTPase pull-down assay; format: cell-based, mouse; details: EGF pulsed KR158 cells, 12 hrs and 18 hrs
Procedure: Rho GTPase Pull-Down Assay: The Rho pull down assay was obtained from Upstate Biolotech/Millipore (Billerica, Mass., USA, Cat#17-294). KR158 cells were harvested at approximately 80% confluency and seeded at 5×10^5 cells per well in a 6-well plate. After overnight recovery, cells were serum starved in 0.5% FBS for 18 hrs. Cells were then treated with 10 ng/mL EGF either in the presence or the absence of the indicted concentrations of SA for up to 18 hours. At the indicated time points, the cells were lysed according to the manufacturer's protocols. Proteins pulled down by the Rho-GTP binding beads were eluted by SDS, fractionated on a 10% SDS-PAGE gel, and transferred to a nitrocellulose membrane. Pre-pull-down lysates were run in parallel to determine total levels of Rho in each sample. The membrane was probed by an anti Rho antibody.

primary astrocytes = assay: Cell morphology / actin confocal microscopy, primary astrocytes; format: cell-based, mouse; details: 18 hours treatment
Procedure: (§1) Cell Morphology Assays and Confocal Microscopy: To assay cytoskeleton morphology, KR158 cells, mouse primary astrocytes, KR158 clones expressing the NF1-GRD constructs, K14553 cells, and A549 were seeded to cover slips and allowed to reattach overnight. Cells were treated for 18 hours with either the indicated concentrations of SA, or the vehicle control DMSO. The cover slips were fixed in 3.7% paraformaldehyde, permeablized in 0.1% Triton-X100, and stained with Alexa Fluor 488-phalloidin (Invitrogen, Carlsbad, Calif., USA) to detect actin and cells were mounted in Prolong Antifade containing DAPI (Invitrogen) to stain nuclei. The cells were imaged on a LSM510 confocal microscope (Carl Zeiss Inc., Jena, Germany). For phospho-myosin light chain 2 (MLC) detection, cells were seeded to coverslips as described above. Cells were serum starved in 0.5% FBS and SA or DMSO vehicle control for 18 hours, and then pulsed with 10 ng/mL EGF (Invitrogen) for 5 min. […] Actin structures were monitored continuously over a 16 hr period using confocal microscopy equipped with a growth chamber (37° C., humidified atmosphere and 5% CO2). […]

[3] = tested on: phosphorylation of Ser 19 on myosin light chain 2 (MLC2); assay: Phospho-myosin light chain 2 immunostaining, KR158; format: cell-based, mouse; details: KR158 cells treated with SA and EGF
Procedure: as §1

SNB-75 = assay: NCI60 cell line response to SA, SNB-75; format: cell-based, human; details: SNB-75, doubling time 62.8 hours
A549 cells = assay: Cell morphology / actin confocal microscopy, A549; format: cell-based, human; details: 18 hours treatment
Procedure: as §1

[4] = tested on: KR158 cells transduced with empty vector (PMSCV); assay: XTT cell proliferation assay, KR158 empty vector; format: cell-based, mouse; details: two-day cell proliferation assay
Procedure: (§2) XTT Cell Proliferation Assay: Cells were seeded into 96-well plates at a density of 2,000 cells/well and allowed to reattach overnight. Cells were treated with SA, synthetic analogs, camptothecin (NCI Chemotherapeutics Repository, Md., USA), or DMSO control at the indicated concentrations continuously for 48 hours followed by assay in the 96-well plate for relative viable cell number using the dye […] (XTT) and a Wallac-Victor 2 plate reader (Perkin-Elmer, Waltham, Mass., USA). Absorbance was determined at 450 nm with 650 nm as a reference reading. Primary astrocytes were additionally assayed at a 96 hour time point.
(§3) Constructs and Transfections: NF1-GRD retroviral constructs were obtained from Indiana University. Cells transduced with the NF1-GRD construct or PMSCV empty vector control as previously described (Hiatt et al., J. Biol. Chem., 2001, 276:7240-5) were maintained in 1 μg/mL puromycin (Sigma).

[5] = tested on: sporadic MPNST STS26T cells; assay: XTT cell proliferation assay, STS26T; format: cell-based, human
Procedure: as §2
Cell lines and culture: Human MPNST cell lines (STS26T and T265) were obtained from the Pediatric Oncology Branch, NCI (Bethesda, Md., USA).

[6] = tested on: empty vector transduced KR158 cells; assay: Cell morphology / actin confocal microscopy, empty vector KR158; format: cell-based, mouse
Procedure: as §3
as §1, with “above.” for “above. Cells were serum starved in 0.5% FBS and SA or DMSO vehicle control for 18 hours, and then pulsed with 10 ng/mL EGF (Invitrogen) for 5 min.”

[7] = tested on: MPNST cell lines derived from the NPcis mouse; assay: Cell morphology / actin, MPNST cell lines; format: cell-based
Procedure: as §1

NCI 60-cell line panel = assay: NCI 60 cell line assay; format: cell-based, human

CC(C)=CCC/C(C)=C/Cc1c(O)cc(/C=C/c2cc(O)c3c(c2)C[C@@H]2C(C)(C)[C@H](O)[C@H](O)C[C@@]2(C)O3)cc1O [SA, Schweinfurthin A]
F-actin staining / stress fibers [1]: dramatic loss of F-actin staining
colony growth [2]: not inhibited; also recorded: formed colonies up to the highest concentration of SA tested
Rho activity (Rho): marked inhibition of Rho activity
actin organization, phalloidin staining (primary astrocytes): no visible changes in actin organization
MLC phosphorylation (Ser 19) [3]: dose dependent decrease of MLC phosphorylation
logGI50 (SNB-75): −7.82
actin organization, phalloidin staining (A549 cells): no visible changes in actin organization
inhibition of proliferation [4]: highly active
inhibition of proliferation [5]: much weaker inhibition of proliferation; also recorded: are not
F-actin structures [6]: same reorganization of F-actin structures
actin cytoskeleton [7]: loss of stress fibers
selectivity (NCI 60-cell line panel): 1000 fold
differential cytotoxicity (NCI 60-cell line panel; NCI 60-cell line panel): significant differential cytotoxicity
